Source: ChEMBL document CHEMBL1138507, “Synthesis, activity, and pharmacophore development for isatin-beta-thiosemicarbazones with selective activity toward multidrug-resistant cells” (J Med Chem, 2009)

Assays:
[1] = target: Serine/threonine-protein kinase pim-1 (Homo sapiens, UniProt P11309)
[2] = target: Cyclin-dependent kinase 2 (Homo sapiens, UniProt P24941); experiment: Inhibition of CDK2/cyclinA
cells [3] = settings: Homo sapiens, KB-V1, 72 h
Description: Cytotoxicity against human P-glycoprotein-expressing KBV1 cells after 72 hrs by MTT assay

[4] = target: Rho-associated protein kinase 1 (Homo sapiens, UniProt Q13464); experiment: Inhibition of ROCK1
[5] = target: Tyrosine-protein kinase ABL1 (Homo sapiens, UniProt P00519); experiment: Inhibition of ABL1
[6] = target: Serine/threonine-protein kinase PLK2 (Homo sapiens, UniProt Q9NYY3)
cells [7] = settings: Homo sapiens, KB 3-1, 72 h
Description: Cytotoxicity against human P-gp-negative KB-3-1 cells after 72 hrs by MTT assay

[8] = target: T1, Serine/threonine-protein kinase Chk1 (Homo sapiens, UniProt O14757)
T1 sequence (O14757 whole entry): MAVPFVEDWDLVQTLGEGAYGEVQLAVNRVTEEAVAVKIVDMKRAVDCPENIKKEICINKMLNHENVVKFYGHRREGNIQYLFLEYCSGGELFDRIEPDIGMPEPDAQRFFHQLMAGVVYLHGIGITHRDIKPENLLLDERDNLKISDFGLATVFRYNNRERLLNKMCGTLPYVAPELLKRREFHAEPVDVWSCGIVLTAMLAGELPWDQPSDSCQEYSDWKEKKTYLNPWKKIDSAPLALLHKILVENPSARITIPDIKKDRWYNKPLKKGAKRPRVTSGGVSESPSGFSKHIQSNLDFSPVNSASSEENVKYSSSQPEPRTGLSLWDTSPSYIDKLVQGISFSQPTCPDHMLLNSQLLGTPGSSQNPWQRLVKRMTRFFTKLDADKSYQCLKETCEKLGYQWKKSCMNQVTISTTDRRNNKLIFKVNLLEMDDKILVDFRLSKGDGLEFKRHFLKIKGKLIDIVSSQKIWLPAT

[9] = target: Protein kinase C alpha type (Homo sapiens, UniProt P17252); experiment: Inhibition of PKCalpha
[10] = target: Ribosomal protein S6 kinase alpha-1 (Homo sapiens, UniProt Q15418)
[11] = target: T2, Receptor-type tyrosine-protein kinase FLT3 (Homo sapiens, UniProt P36888)
T2 sequence (P36888 whole entry): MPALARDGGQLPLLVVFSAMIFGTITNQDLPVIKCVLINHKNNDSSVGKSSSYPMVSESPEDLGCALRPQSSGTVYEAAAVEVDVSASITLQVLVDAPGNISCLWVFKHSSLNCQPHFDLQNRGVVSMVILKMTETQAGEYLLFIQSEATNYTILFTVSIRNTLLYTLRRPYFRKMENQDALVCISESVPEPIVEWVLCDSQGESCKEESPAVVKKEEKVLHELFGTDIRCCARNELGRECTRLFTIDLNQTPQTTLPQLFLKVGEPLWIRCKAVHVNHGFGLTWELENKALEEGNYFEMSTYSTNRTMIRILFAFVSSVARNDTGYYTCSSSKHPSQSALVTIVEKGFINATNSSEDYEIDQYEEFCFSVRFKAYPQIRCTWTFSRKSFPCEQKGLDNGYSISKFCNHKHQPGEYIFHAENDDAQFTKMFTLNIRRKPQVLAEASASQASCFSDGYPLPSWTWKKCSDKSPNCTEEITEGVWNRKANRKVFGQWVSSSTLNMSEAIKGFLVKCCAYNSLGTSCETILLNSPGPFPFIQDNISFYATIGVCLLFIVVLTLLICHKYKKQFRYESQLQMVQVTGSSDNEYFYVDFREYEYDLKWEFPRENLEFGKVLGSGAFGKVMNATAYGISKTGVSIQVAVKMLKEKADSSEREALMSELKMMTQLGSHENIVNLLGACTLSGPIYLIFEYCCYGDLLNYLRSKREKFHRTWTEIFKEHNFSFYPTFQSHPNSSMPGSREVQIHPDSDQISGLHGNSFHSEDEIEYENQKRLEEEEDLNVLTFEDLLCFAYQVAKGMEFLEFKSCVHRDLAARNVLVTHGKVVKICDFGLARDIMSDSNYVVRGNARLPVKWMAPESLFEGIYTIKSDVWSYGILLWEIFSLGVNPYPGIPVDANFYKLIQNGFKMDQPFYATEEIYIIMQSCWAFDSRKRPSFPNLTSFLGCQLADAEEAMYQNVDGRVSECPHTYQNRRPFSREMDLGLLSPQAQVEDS

Tyrosine-protein kinase ABL1, sequence (P00519 whole entry): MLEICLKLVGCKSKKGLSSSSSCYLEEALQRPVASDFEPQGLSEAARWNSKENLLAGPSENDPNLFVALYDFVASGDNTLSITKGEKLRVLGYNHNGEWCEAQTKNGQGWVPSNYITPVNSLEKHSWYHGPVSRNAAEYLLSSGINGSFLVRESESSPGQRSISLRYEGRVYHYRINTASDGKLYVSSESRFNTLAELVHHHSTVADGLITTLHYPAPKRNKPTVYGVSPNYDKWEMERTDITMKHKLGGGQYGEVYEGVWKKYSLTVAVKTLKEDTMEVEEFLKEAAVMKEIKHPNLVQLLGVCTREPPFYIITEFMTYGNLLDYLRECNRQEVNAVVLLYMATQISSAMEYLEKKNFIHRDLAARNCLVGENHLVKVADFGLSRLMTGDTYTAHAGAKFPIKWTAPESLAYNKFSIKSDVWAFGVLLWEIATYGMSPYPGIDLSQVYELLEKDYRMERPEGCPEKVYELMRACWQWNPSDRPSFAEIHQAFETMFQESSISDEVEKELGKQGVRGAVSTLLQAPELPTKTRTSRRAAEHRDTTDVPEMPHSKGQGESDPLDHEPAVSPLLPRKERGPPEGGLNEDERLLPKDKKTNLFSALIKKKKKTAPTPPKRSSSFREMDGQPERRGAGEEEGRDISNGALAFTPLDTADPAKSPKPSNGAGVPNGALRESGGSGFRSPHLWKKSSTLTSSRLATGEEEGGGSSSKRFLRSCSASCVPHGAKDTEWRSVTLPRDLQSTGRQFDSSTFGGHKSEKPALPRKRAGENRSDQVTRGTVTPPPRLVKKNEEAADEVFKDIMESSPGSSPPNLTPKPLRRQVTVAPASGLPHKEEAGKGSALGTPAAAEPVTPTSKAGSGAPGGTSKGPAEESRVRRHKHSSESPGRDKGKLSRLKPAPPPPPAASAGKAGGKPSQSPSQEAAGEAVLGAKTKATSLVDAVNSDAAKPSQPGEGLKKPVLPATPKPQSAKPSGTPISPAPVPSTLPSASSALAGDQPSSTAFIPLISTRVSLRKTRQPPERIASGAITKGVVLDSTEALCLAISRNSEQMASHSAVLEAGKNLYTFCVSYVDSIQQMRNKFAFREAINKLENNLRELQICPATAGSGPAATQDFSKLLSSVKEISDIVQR
Ribosomal protein S6 kinase alpha-1, sequence (Q15418 whole entry): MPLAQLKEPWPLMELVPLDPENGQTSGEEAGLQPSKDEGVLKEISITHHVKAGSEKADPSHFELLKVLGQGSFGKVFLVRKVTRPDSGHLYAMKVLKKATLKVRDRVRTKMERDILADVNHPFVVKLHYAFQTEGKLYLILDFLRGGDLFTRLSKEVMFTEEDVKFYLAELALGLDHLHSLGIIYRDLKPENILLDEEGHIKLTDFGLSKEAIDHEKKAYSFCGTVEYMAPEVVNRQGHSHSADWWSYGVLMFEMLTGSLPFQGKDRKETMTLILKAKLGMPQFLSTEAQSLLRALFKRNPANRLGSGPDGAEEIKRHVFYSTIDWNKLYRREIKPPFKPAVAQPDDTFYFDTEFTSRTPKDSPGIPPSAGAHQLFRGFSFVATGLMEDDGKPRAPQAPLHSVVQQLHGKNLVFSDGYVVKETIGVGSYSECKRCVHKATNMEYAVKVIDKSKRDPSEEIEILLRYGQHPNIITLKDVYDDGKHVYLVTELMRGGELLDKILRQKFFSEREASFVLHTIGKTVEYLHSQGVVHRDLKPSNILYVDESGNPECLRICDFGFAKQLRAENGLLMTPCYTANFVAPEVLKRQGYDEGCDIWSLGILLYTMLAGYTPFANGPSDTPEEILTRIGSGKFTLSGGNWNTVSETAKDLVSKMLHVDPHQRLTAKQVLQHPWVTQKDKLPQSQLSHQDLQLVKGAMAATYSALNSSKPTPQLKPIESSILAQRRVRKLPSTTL
Serine/threonine-protein kinase PLK2, sequence (Q9NYY3 whole entry): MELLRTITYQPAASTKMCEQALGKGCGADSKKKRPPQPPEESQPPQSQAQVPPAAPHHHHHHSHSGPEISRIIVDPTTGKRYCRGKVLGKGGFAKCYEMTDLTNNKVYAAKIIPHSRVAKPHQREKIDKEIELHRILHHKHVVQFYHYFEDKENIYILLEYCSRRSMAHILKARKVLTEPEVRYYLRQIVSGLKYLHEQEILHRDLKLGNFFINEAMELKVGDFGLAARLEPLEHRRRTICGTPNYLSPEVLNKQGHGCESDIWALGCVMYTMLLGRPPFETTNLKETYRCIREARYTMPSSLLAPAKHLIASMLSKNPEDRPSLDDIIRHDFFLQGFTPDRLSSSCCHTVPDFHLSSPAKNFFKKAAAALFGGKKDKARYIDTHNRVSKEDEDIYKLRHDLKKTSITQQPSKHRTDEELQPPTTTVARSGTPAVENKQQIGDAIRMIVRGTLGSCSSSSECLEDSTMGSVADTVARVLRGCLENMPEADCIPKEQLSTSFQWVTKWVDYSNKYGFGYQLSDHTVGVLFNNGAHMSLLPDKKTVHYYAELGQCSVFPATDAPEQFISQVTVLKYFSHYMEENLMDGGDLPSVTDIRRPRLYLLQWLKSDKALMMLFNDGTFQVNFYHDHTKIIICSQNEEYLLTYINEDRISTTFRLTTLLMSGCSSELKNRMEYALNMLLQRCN
Serine/threonine-protein kinase pim-1, sequence (P11309 whole entry): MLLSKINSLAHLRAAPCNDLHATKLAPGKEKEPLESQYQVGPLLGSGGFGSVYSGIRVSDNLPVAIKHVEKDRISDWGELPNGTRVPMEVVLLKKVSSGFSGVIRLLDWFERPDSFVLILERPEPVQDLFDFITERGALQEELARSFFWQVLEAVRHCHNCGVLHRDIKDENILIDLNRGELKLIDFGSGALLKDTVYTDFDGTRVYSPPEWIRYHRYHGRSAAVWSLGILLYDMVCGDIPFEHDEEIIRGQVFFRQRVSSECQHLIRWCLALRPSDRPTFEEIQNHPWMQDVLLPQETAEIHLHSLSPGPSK
Rho-associated protein kinase 1, sequence (Q13464 whole entry): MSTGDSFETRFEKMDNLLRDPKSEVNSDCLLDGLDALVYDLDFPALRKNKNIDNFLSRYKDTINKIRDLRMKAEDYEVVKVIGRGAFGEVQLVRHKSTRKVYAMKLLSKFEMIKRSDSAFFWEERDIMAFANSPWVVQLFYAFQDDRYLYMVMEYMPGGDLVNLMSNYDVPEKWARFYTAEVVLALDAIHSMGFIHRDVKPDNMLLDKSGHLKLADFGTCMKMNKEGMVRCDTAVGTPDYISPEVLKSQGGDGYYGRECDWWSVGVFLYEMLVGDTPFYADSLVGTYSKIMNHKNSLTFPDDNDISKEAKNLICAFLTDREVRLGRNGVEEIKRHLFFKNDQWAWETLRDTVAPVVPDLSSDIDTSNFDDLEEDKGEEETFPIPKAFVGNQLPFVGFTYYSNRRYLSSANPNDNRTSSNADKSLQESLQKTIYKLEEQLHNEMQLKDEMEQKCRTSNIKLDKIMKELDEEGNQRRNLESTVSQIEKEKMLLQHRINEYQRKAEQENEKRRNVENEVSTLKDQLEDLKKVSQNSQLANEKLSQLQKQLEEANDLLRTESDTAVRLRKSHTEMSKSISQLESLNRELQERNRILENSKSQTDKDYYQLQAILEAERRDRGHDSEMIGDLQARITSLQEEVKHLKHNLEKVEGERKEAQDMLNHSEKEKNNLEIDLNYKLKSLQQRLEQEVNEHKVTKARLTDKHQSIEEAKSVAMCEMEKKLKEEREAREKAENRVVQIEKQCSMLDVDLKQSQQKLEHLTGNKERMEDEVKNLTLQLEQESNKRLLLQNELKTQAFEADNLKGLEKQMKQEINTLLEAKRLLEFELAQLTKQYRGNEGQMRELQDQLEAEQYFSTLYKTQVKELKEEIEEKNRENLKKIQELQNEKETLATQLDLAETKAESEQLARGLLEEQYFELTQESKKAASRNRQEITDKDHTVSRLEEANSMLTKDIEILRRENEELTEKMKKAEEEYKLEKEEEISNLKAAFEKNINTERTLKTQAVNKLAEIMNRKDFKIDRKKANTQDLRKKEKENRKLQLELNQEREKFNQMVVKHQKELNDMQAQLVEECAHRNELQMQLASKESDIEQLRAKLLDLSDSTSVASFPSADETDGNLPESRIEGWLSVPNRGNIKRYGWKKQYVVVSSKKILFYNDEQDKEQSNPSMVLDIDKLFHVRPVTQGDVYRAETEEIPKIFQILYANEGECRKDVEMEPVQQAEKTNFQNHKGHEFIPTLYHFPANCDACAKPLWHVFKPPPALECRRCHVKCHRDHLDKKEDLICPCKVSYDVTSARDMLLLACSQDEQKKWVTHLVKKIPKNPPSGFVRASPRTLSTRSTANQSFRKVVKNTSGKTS

Row | Compound | IC50 (cells [3]) [µM] | IC50 (cells [3]; read-out: pIC50 (converted)) [µM] | IC50 (cells [7]) [µM] | IC50 (cells [7]; read-out: pIC50 (converted)) [µM] | further results
1 | COc1ccc(NC(=S)NNC2=c3ccccc3=NC2=O)cc1 | 3.3 | 3.31 | 14.2 | 14.1 | IC50 [1]: > 50 µM; IC50 [2]: > 50 µM; IC50 [4]: > 50 µM; IC50 [5]: > 50 µM; IC50 [6]: > 50 µM; IC50 [8]: > 50 µM; IC50 [9]: > 50 µM; IC50 [10]: 34.9 µM; IC50 [11]: > 50 µM
2 | CC(=O)Nc1ccc(/C=N/NC(N)=S)cc1 [AMITHIOZONE] | > 50 |  | > 50 |  | 
3 | COc1ccc(NC(=S)N/N=C/c2ccc(NC(C)=O)cc2)cc1 | > 50 |  | > 50 |  | 
4 | COc1ccc(NC(=S)N/N=C2\C(=O)Nc3c2ccc2ccccc32)cc1 | 30.3 |  | 4.4 | 4.37 | 
5 | NC(=S)/N=N/c1c(O)[nH]c2ccccc12 | > 50 |  | > 50 |  | 
6 | NC(=O)N/N=C1\C(=O)Nc2ccccc21 | > 50 |  | > 50 |  | 
7 | O=C1Nc2ccccc2C1=O [ISATIN] | > 50 |  | > 50 |  | 
8 | C=CCNC(=S)N/N=C1\C(=O)Nc2ccc([N+](=O)[O-])cc21 | 34.3 | 35.5 | 17 | 28.2 | 
9 | COc1ccc(NC(=O)N/N=C2\C(=O)Nc3ccccc32)cc1 | > 50 |  | 27.7 |  | 
10 | COc1ccc(NC(=S)NN)cc1 | > 50 |  | > 50 |  | 
11 | COc1ccc(NC(=S)N/N=C2\C(=O)Nc3ccc(S(=O)(=O)O)cc32)cc1 | > 50 |  | > 50 |  | 
12 | CCOC(=O)C(=CNC(=S)N/N=C1\C(=O)Nc2ccccc21)C(=O)OCC | > 50 |  | > 50 |  | 
13 | COc1ccc(NC(=S)N/N=C2\CCc3ccccc32)cc1 | > 50 |  | > 50 |  | 
14 | COc1ccc(NC(=S)NN=C2Cc3ccccc3C2)cc1 | > 50 |  | > 50 |  | 

The next lines start with results.

Row | IC50 (cells [3]) [µM] | IC50 (cells [3]; read-out: pIC50 (converted)) [µM] | IC50 (cells [7]) [µM] | IC50 (cells [7]; read-out: pIC50 (converted)) [µM] | Compound | further results
15 | 2.4 | 2.4 | 3.4 | 3.39 | COc1ccc(NC(=S)N/N=C/c2ccccn2)cc1 | 
16 | 20.7 | 20.9 | 26.1 | 26.3 | C=CCNC(=S)N/N=C1\C(=O)Nc2ccccc21 | 
17 | 4 | 3.98 | 28.4 | 28.2 | O=C1Nc2ccc(Br)cc2/C1=N/NC(=S)Nc1ccc([N+](=O)[O-])cc1 | 
18 | 5.2 | 5.25 | 39.3 | 38.9 | COc1ccc(NC(=S)N/N=C2\C(=O)Nc3ccc(F)cc32)cc1 | 
19 | 9.3 | 9.33 | 19.6 | 19.5 | COc1ccc(NC(=S)N/N=C2\C(=O)N(C)c3ccccc32)cc1 | 
20 | 2.1 | 2.09 | 1.9 | 1.91 | Cc1cnc(/C=N/NC(N)=S)c2cccc(N)c12 | 
21 | 10.2 | 10.2 | 14.5 | 14.5 | O=C1Nc2ccc([N+](=O)[O-])cc2/C1=N/NC(=S)Nc1ccccc1 | 
22 | 5.8 | 5.75 | 13.1 | 13.2 | O=C1Nc2ccc(Br)cc2/C1=N/NC(=S)Nc1ccc(F)cc1 | 
23 | 6.7 | 6.76 | 26.3 | 26.3 | COc1ccc(NC(=S)N/N=C2\C(=O)Nc3ccc([N+](=O)[O-])cc32)cc1 | 
24 | 5.9 | 5.89 | 1.4 | 1.41 | NC(=S)N/N=C/c1ncccc1N [TRIAPINE] | 
